Values quoted from earlier work as cited in patent US20190021382A1, “LONG-LASTING SWEETENER FORMULATIONS” (WM. WRIGLEY JR. COMPANY, priority 2016, published 2019).

Details: relative to sugar

C=C1C[C@@]23CC[C@H]4[C@@](C)(CCC[C@@]4(C)C(=O)O[C@@H]4O[C@H](CO)[C@@H](O)[C@H](O)[C@H]4O)[C@@H]2CC[C@]1(O[C@@H]1O[C@H](CO)[C@@H](O)[C@H](O[C@@H]2O[C@H](CO)[C@@H](O)[C@H](O)[C@H]2O)[C@H]1O[C@@H]1O[C@H](CO)[C@@H](O)[C@H](O)[C@H]1O)C3 [Rebaudioside A, rebaudioside A]
times sweeter than sugar: 200 times
